# Measurements from ChEMBL document CHEMBL2434905, “2-Amino-6-chloro-3,4-dihydroquinazoline: A novel 5-HT3 receptor antagonist with antidepressant character” (Bioorg Med Chem Lett, 2013).
# Activity calls are given as the source filed them. No cut-off for these calls is given here.
# What was measured:
# [1] = target: T1, 5-hydroxytryptamine receptor 3A (Mus musculus, UniProt P23979); experiment: Displacement of [3H]LY278584 from mouse 5-HT3A receptor
# T1 sequence (P23979 whole entry): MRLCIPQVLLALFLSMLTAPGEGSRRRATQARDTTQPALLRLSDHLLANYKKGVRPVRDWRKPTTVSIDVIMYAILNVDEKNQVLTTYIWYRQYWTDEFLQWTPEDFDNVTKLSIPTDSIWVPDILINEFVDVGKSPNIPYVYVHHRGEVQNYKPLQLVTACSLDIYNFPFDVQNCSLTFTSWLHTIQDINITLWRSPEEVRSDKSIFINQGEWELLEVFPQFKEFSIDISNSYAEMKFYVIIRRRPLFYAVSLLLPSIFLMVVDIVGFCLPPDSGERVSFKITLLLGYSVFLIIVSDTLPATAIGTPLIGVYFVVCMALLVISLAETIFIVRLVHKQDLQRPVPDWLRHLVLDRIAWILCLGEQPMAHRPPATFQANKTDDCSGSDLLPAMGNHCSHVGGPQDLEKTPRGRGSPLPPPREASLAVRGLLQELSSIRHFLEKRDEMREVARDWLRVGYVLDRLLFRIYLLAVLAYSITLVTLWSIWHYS
# [2] = target: T2, 5-hydroxytryptamine receptor 3A (Homo sapiens, UniProt P46098); experiment: Displacement of [3H]GR65630 from human 5-HT3A receptor expressed in HEK293 cells by liquid scintillation counting analysis; type: cell-based
# T2 sequence (P46098 whole entry): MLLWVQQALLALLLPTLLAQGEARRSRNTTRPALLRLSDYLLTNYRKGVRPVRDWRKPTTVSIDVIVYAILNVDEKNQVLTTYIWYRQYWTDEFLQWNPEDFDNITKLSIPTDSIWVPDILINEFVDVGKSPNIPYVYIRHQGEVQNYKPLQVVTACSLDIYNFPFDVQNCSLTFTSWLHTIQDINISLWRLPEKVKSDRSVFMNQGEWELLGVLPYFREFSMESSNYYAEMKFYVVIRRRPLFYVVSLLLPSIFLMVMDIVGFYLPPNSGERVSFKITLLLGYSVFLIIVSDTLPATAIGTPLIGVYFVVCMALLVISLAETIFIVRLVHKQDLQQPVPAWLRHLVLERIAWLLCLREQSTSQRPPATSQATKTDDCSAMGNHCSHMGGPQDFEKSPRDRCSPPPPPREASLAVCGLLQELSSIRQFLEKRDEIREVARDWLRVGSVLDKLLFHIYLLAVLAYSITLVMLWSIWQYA
# Mus musculus = experiment: Antidepressant activity in ICR mouse assessed as immobility time at 20 mg/kg, ip by tail suspension test; type: functional, organism-based; set-up: dose 20 mg/kg
structure (smiles),measurement,setting,value
NC1=Nc2cc(Cl)ccc2CN1,Ki,[1],1970 nM
CN1CCN2c3ncccc3Cc3ccccc3C2C1 (stereo not drawn) [MIRTAZAPINE],Ki,[2],2900 nM
CNCCC(Oc1ccc(C(F)(F)F)cc1)c1ccccc1 (stereo not drawn),Activity,Mus musculus,Active
